Source: patent US12257247B2 (Monte Rosa Therapeutics AG, priority 2023, dated 2025)
Like-named read-outs stand apart in the source and are kept apart here.

Target: T1, VAV1 (Homo sapiens, UniProt P15498+Q96SW2)
T1 construct: A heterozygous VAV1 C-terminal HiBiT knock-in pool was generated at Monte Rosa Therapeutics from a clonal Jurkat cell; endogenous in cells; host or cells: Jurkat clone stably expressing LgBiT, homozygous GSPT1-G575N; heterozygous VAV1-HiBiT knock-in pool
Assay: VAV1 degradation activity, VAV1-HiBiT knock-in Jurkat luminescence assay (Example A, Table 1)
Format: cell-based
Settings: VAV1-HiBiT knock-in Jurkat cells, luminescence read at 6 and 24 hours; for Dmax: Jurkat
Summary of the method: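 Luminescence was measured at 6 and 24 h after adding compound (10 μM stock) to VAV1-HiBiT knock-in Jurkat cells, which had been pre-incubated ~16 h at 37° C. in RPMI/10% FBS containing Endurazine. EC50 values came from control-normalised responses fitted to a 3-parameter logistic model with hillslope fixed at 1.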

[1] = read-out: VAV1 DC50 (nM), class

Compound | Dmax (read-out: VAV1 Dmax %) | Dmax (read-out: VAV1 Dmax %, class) | DC50 (read-out: VAV1 DC50) | DC50 [1]
CC1CCC(=O)N(c2ccc(-c3cccc(C4CCC(=O)NC4=O)c3Cl)cc2)C1 (stereo not shown) [Compound 314] | 96.1% | > 90% | 9.68 nM | ≤ 100 nM
O=C1CCC(c2cccc(-c3ccc(N4CCn5cncc5C4=O)cc3)c2Cl)C(=O)N1 (stereo not shown) [Compound 315] | 89.8% | 60 to 90% | 22 nM | ≤ 100 nM
Cn1ncc2c1CCC(=O)N2c1ccc(-c2cccc(C3CCC(=O)NC3=O)c2Cl)cc1 (stereo not shown) [Compound 316] | 93.3% | > 90% | 11.8 nM | ≤ 100 nM
CN1CC(=O)N(c2ccc(-c3cccc(C4CCC(=O)NC4=O)c3Cl)cc2)CC1(C)C (stereo not shown) [Compound 317] | 93.2% | > 90% | 13.6 nM | ≤ 100 nM
COC1CCCC(=O)N1c1ccc(-c2cccc(C3CCC(=O)NC3=O)c2Cl)cc1 (stereo not shown) [Compound 318] | 97.2% | > 90% | 5.24 nM | ≤ 100 nM
O=C1CCC(c2cccc(-c3ccc(N4CC5CC5C4=O)cc3)c2Cl)C(=O)N1 (stereo not shown) [Compound 319] | 80.8% | 60 to 90% | 104 nM | 100 to 1000 nM
O=C1CCC(c2cccc(-c3ccc(N4CCOC(F)(F)C4=O)cc3)c2Cl)C(=O)N1 (stereo not shown) [Compound 320] | 84.9% | 60 to 90% | 102 nM | 100 to 1000 nM
O=C1CCC(c2cccc(-c3ccc(N4CCn5nccc5C4=O)cc3)c2Cl)C(=O)N1 (stereo not shown) [Compound 321] | 88.1% | 60 to 90% | 22.5 nM | ≤ 100 nM
O=C1CCC(c2cccc(-c3ccc(N4CCCC(F)(F)C4=O)cc3)c2Cl)C(=O)N1 (stereo not shown) [Compound 322] | 93.9% | > 90% | 17.7 nM | ≤ 100 nM
O=C1CCC(c2cccc(-c3ccc(N4CCCC(F)C4=O)cc3)c2Cl)C(=O)N1 (stereo not shown) [Compound 323] | 95% | > 90% | 10.6 nM | ≤ 100 nM
O=C1CCC(c2cccc(-c3ccc(N4C(=O)COCC45CC5)cc3)c2Cl)C(=O)N1 (stereo not shown) [Compound 324] | 97.8% | > 90% | 3.46 nM | ≤ 100 nM
C[C@H]1COCC(=O)N1c1ccc(-c2cccc(C3CCC(=O)NC3=O)c2Cl)cc1 (stereo partly shown) [Compound 325] | 96.2% | > 90% | 6.66 nM | ≤ 100 nM
CN1CC(=O)N(c2ccc(-c3cccc(C4CCC(=O)NC4=O)c3Cl)cc2)c2cncnc21 (stereo not shown) [Compound 326] | 90.9% | > 90% | 16.2 nM | ≤ 100 nM
O=C1CCC(c2cccc(-c3ccc(N4C(=O)C[C@@H]5CCC[C@@H]54)cc3)c2Cl)C(=O)N1 (stereo partly shown) [Compound 327] | 89.3% | 60 to 90% | 30.1 nM | ≤ 100 nM
O=C1CCC(c2cccc(-c3ccc(N4Cc5nccn5CC4=O)cc3)c2Cl)C(=O)N1 (stereo not shown) [Compound 328] | 90.8% | > 90% | 15 nM | ≤ 100 nM
CC1CCCN(c2ccc(-c3cccc(C4CCC(=O)NC4=O)c3Cl)cc2)C1=O (stereo not shown) [Compound 329] | 95.8% | > 90% | 6.62 nM | ≤ 100 nM
O=C1CCC(c2cccc(-c3ccc(N4C(=O)CCn5nccc54)cc3)c2Cl)C(=O)N1 (stereo not shown) [Compound 330] | 72.1% | 60 to 90% | 130 nM | 100 to 1000 nM
CN1CCN(c2ccc(-c3cccc(C4CCC(=O)NC4=O)c3Cl)cc2)C(=O)C1 (stereo not shown) [Compound 331] | 91.6% | > 90% | 17.2 nM | ≤ 100 nM
CC1CCN(c2ccc(-c3cccc(C4CCC(=O)NC4=O)c3Cl)cc2)C(=O)C1 (stereo not shown) [Compound 332] | 95.5% | > 90% | 10.6 nM | ≤ 100 nM

Compound | Dmax (read-out: VAV1 Dmax %) | Dmax (read-out: VAV1 Dmax %, class) | DC50 (read-out: VAV1 DC50) | DC50 [1]
Cc1nn(C)c2c1N(c1ccc(-c3cccc(C4CCC(=O)NC4=O)c3Cl)cc1)C(=O)CO2 (stereo not shown) [Compound 333] | 98.2% | > 90% | 3.17 nM | ≤ 100 nM
CN1CC(=O)N(c2ccc(-c3cccc(C4CCC(=O)NC4=O)c3Cl)cc2)c2cnccc21 (stereo not shown) [Compound 334] | 93.5% | > 90% | 11.1 nM | ≤ 100 nM
CN1CC(=O)N(c2ccc(-c3cccc(C4CCC(=O)NC4=O)c3Cl)cc2)c2cccnc21 (stereo not shown) [Compound 335] | 97.3% | > 90% | 5.87 nM | ≤ 100 nM
O=C1CCC(c2cccc(-c3ccc(N4CCOCC4=O)cc3)c2Cl)C(=O)N1 (stereo not shown) [Compound 336] | 93.5% | > 90% | 17.4 nM | ≤ 100 nM
O=C1CCC(c2cccc(-c3ccc(C4(N5CCCCC5=O)CC4)cc3)c2Cl)C(=O)N1 (stereo not shown) [Compound 337, 3-[2-chloro-3-[4-[1-(2-oxo-1-piperidyl)cyclopropyl]phenyl]phenyl]piperidine-2,6-dione] | 40% | < 60% | 5770 nM | > 1000 nM
O=C1CCC(c2cccc(-c3ccc(N4CCOCC4)cc3)c2Cl)C(=O)N1 (stereo not shown) [Compound 338, 3-(2-chloro-4′-morpholino-[1,1′-biphenyl]-3-yl)piperidine-2,6-dione] | 57.8% | < 60% | 2170 nM | > 1000 nM
O=C1CCC(c2cccc(-c3ccc(N4C(=O)CCCC45CCC5)cc3)c2Cl)C(=O)N1 (stereo not shown) [Compound 339, 3-(2-chloro-4′-(6-oxo-5-azaspiro[3.5]nonan-5-yl)-[1,1′-biphenyl]-3-yl)piperidine-2,6-dione] | 98.2% | > 90% | 1.96 nM | ≤ 100 nM
O=C1CCC(c2cccc(-c3ccc(Cc4nccc(C5COC5)n4)cc3)c2Cl)C(=O)N1 (stereo not shown) [Compound 340, 3-(2-chloro-4′-((4-(oxetan-3-yl)pyrimidin-2-yl)methyl)-[1,1′-biphenyl]-3-yl)piperidine-2,6-dione] | 96.6% | > 90% | 5.86 nM | ≤ 100 nM
CN1CC2(CCC2)N(c2ccc(-c3cccc(C4CCC(=O)NC4=O)c3Cl)cc2)C1=O (stereo not shown) [Compound 341, 3-(2-chloro-4′-(7-methyl-6-oxo-5,7-diazaspiro[3.4]octan-5-yl)-[1,1′-biphenyl]-3-yl)piperidine-2,6-dione] | 98.2% | > 90% | 2.46 nM | ≤ 100 nM
CN1CC2(CC2)N(c2ccc(-c3cccc(C4CCC(=O)NC4=O)c3Cl)cc2)C1=O (stereo not shown) [Compound 342, 3-(2-chloro-4′-(6-methyl-5-oxo-4,6-diazaspiro[2.4]heptan-4-yl)-[1,1′-biphenyl]-3-yl)piperidine-2,6-dione] | 97.7% | > 90% | 4.56 nM | ≤ 100 nM
O=C1CCC(c2cccc(-c3ccc(-n4c(F)cccc4=O)nc3)c2Cl)C(=O)N1 (stereo not shown) [Compound 343, 3-(2-chloro-3-(6-fluoro-2-oxo-2H-[1,2′-bipyridin]-5′-yl)phenyl)piperidine-2,6-dione] | 86.3% | 60 to 90% | 161 nM | 100 to 1000 nM
O=C1CCC(c2cccc(-c3ccc(Cc4nccc(C5CC5)n4)cc3)c2Cl)C(=O)N1 (stereo not shown) [Compound 344, 3-(2-chloro-4′-((4-cyclopropylpyrimidin-2-yl)methyl)-[1,1′-biphenyl]-3-yl)piperidine-2,6-dione] | 98% | > 90% | 6.97 nM | ≤ 100 nM
O=C1CCC(c2cccc(-c3ccc(N4C(=O)OCCC45CC5)cc3)c2Cl)C(=O)N1 (stereo not shown) [Compound 345, 3-(2-chloro-4′-(5-oxo-6-oxa-4-azaspiro[2.5]octan-4-yl)-[1,1′-biphenyl]-3-yl)piperidine-2,6-dione] | 97.9% | > 90% | 3.53 nM | ≤ 100 nM
CN1CC(=O)N(c2ccc(-c3cccc(C4CCC(=O)NC4=O)c3Cl)cn2)CC12CC2 (stereo not shown) [Compound 346, 3-(2-chloro-3-(6-(4-methyl-6-oxo-4,7-diazaspiro[2.5]octan-7-yl)pyridin-3-yl)phenyl)piperidine-2,6-dione] | 29.4% | < 60% | ≥ 10000 nM | > 1000 nM
O=C1CCC(c2cccc(-c3ccc(Cc4nccc(C(F)(F)F)n4)cc3)c2Cl)C(=O)N1 (stereo not shown) [Compound 347, 3-(2-chloro-4′-((4-(trifluoromethyl)pyrimidin-2-yl)methyl)-[1,1′-biphenyl]-3-yl)piperidine-2,6-dione] | 96.4% | > 90% | 17.1 nM | ≤ 100 nM
O=C1CCC(c2cccc(-c3ccc(Cc4nccc(C(F)F)n4)cc3)c2Cl)C(=O)N1 (stereo not shown) [Compound 348, 3-(2-chloro-4′-((4-(difluoromethyl)pyrimidin-2-yl)methyl)-[1,1′-biphenyl]-3-yl)piperidine-2,6-dione] | 95.2% | > 90% | 11.7 nM | ≤ 100 nM
O=C1CCC(c2cccc(-c3ccc(N4C(=O)NCCC45CCC5)cc3)c2Cl)C(=O)N1 (stereo not shown) [Compound 349, 3-(2-chloro-4′-(6-oxo-5,7-diazaspiro[3.5]nonan-5-yl)-[1,1′-biphenyl]-3-yl)piperidine-2,6-dione] | 98.3% | > 90% | 2.21 nM | ≤ 100 nM
O=C1CCC(c2cccc(-c3ccc(N4C(=O)CCCC45CC5)c(F)c3)c2Cl)C(=O)N1 (stereo not shown) [Compound 350, 3-(2-chloro-3′-fluoro-4′-(5-oxo-4-azaspiro[2.5]octan-4-yl)-[1,1′-biphenyl]-3-yl)piperidine-2,6-dione] | 97.3% | > 90% | 7.18 nM | ≤ 100 nM
